ChEMBL document CHEMBL5291721, “A preclinical secondary pharmacology resource illuminates target-adverse drug reaction associations of marketed drugs” (Nat Commun, 2023)
Where a SMILES comes first, the peptide text is derived from it.

Experiments:
[1] = target: Muscarinic acetylcholine receptor M3 (Homo sapiens, UniProt P20309)
Estrogen receptor = target: T1, Estrogen receptor (Homo sapiens, UniProt P03372)
T1 sequence (P03372 whole entry): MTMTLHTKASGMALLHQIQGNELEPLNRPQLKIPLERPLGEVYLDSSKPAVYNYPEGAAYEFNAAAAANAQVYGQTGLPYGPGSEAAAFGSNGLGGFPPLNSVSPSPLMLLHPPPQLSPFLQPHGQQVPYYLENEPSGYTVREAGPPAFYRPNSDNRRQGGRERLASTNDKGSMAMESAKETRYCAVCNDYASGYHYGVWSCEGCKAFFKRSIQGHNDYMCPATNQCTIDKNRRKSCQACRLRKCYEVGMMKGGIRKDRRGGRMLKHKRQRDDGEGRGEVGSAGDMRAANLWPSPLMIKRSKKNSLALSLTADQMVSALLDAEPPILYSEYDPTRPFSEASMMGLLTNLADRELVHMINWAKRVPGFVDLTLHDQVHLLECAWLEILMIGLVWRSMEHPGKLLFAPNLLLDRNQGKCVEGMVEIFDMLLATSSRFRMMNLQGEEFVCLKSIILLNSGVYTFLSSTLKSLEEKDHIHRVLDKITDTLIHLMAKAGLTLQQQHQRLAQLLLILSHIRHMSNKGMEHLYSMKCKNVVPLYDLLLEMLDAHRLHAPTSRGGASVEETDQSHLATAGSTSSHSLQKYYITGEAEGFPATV

[2] = target: Growth hormone secretagogue receptor type 1 (Homo sapiens, UniProt Q92847)
[3] = target: T2, 5-hydroxytryptamine receptor 1A (Homo sapiens, UniProt P08908); format: functional, cell-based
T2 sequence (P08908 whole entry): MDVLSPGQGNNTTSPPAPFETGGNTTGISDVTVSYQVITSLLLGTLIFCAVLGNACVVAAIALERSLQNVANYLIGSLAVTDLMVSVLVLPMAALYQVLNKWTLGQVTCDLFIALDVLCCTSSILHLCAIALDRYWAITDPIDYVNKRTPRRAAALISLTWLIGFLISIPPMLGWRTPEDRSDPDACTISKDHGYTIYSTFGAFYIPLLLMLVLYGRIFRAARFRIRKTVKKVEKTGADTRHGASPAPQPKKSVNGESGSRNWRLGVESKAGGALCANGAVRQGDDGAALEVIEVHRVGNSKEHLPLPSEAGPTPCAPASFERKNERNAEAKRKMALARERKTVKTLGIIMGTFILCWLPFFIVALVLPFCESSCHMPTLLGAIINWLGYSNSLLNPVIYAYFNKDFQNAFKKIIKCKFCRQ

Melanocortin receptor 4 = Melanocortin receptor 4 (Homo sapiens, UniProt P32245)
Motilin receptor = Motilin receptor (Homo sapiens, UniProt O43193)
[4] = target: cGMP-inhibited 3',5'-cyclic phosphodiesterase 3A (Homo sapiens, UniProt Q14432); format: functional
D(3) dopamine receptor = D(3) dopamine receptor (Homo sapiens, UniProt P35462)
[5] = target: T3, Alpha-1A adrenergic receptor (Homo sapiens, UniProt P35348); format: functional, cell-based
T3 sequence (P35348 whole entry): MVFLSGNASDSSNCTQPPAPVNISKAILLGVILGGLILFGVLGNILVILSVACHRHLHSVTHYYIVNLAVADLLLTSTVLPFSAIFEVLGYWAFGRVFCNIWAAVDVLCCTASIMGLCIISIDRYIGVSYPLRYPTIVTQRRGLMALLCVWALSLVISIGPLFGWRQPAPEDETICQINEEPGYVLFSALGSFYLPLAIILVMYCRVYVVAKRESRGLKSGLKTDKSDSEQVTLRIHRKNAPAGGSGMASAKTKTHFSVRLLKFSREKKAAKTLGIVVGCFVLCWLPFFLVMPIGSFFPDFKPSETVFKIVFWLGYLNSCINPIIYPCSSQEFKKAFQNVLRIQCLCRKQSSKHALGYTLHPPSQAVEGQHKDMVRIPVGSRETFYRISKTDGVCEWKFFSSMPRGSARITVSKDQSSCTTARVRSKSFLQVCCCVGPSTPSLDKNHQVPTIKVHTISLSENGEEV

[6] = target: Beta-2 adrenergic receptor (Homo sapiens, UniProt P07550)
Endothelin-1 receptor = target: T4, Endothelin-1 receptor (Homo sapiens, UniProt P25101)
T4 sequence (P25101 whole entry): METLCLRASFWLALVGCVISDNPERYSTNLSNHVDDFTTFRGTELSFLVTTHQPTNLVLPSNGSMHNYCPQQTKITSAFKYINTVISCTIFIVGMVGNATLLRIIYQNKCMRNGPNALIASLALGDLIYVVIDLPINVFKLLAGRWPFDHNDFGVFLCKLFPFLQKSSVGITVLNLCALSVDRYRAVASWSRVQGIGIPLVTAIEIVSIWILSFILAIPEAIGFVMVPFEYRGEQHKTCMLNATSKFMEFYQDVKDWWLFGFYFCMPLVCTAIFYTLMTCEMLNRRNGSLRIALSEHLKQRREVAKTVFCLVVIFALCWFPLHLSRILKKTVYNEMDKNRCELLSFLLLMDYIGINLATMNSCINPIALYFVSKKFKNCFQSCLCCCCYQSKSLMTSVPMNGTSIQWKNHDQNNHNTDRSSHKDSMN

[7] = target: T5, Gamma-aminobutyric acid receptor subunit alpha-1 (Rattus norvegicus, UniProt P62813)
[8] = target: T5, Gamma-aminobutyric acid receptor subunit alpha-1; format: functional
[9] = target: Glutamate receptor ionotropic, NMDA 1 (Rattus norvegicus, UniProt P35439)
Histamine H3 receptor = Histamine H3 receptor (Homo sapiens, UniProt Q9Y5N1)
Note: assay procedure not described here.

T5 sequence (P62813 whole entry): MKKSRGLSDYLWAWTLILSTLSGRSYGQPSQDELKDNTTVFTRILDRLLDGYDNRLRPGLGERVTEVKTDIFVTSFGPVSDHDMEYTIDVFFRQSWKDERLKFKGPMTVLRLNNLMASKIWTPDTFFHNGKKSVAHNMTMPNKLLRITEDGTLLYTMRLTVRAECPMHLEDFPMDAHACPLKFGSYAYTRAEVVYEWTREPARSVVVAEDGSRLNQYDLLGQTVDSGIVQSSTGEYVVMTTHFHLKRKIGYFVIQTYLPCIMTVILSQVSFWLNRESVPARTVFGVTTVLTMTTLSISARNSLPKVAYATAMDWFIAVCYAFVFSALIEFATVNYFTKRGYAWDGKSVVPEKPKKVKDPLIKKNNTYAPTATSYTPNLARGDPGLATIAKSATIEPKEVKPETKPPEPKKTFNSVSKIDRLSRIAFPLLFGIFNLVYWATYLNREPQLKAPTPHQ
Melanocortin receptor 4, sequence (P32245 whole entry): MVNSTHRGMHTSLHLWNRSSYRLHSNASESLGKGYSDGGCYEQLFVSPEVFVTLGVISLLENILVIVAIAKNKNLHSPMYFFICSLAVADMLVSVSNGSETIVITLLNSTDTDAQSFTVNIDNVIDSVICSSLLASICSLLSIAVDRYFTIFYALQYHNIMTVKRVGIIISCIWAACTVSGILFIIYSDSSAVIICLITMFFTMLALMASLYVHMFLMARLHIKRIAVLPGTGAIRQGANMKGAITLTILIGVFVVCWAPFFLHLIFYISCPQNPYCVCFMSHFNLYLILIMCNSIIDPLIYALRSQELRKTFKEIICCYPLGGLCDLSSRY
Histamine H3 receptor, sequence (Q9Y5N1 whole entry): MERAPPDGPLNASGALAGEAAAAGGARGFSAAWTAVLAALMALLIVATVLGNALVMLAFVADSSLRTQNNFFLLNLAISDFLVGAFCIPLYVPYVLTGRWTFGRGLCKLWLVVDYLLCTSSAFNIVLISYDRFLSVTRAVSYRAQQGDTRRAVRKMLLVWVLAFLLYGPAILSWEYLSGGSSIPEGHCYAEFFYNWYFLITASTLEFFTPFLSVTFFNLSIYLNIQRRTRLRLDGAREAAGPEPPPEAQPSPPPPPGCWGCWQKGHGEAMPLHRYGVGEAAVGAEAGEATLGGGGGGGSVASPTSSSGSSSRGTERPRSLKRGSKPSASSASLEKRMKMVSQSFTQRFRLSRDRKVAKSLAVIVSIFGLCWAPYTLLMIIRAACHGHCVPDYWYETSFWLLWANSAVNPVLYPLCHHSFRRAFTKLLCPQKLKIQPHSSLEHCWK
Motilin receptor, sequence (O43193 whole entry): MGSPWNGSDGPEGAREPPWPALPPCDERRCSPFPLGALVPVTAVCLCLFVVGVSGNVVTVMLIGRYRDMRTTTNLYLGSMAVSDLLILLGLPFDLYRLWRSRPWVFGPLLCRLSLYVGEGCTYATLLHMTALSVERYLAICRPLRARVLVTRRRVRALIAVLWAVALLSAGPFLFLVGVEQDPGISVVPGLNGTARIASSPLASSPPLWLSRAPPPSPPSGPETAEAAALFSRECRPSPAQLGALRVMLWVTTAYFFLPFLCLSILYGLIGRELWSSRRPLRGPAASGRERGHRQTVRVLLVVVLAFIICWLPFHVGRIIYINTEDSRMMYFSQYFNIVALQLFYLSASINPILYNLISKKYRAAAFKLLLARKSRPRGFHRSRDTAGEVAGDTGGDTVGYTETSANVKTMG
Muscarinic acetylcholine receptor M3, sequence (P20309 whole entry): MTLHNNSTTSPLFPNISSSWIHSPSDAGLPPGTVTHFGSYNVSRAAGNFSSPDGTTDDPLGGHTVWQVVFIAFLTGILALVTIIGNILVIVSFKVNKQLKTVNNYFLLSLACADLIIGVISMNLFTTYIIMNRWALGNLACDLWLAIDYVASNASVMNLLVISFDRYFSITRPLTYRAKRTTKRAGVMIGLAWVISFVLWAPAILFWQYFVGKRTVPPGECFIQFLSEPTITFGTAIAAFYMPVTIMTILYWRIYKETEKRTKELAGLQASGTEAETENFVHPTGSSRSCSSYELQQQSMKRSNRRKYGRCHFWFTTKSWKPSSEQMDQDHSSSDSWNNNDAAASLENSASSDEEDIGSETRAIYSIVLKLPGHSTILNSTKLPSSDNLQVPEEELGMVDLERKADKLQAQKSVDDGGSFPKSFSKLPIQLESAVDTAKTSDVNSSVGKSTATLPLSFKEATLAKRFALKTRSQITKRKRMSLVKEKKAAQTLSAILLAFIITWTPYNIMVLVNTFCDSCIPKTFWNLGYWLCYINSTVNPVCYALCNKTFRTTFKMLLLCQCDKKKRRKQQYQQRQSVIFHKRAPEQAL
D(3) dopamine receptor, sequence (P35462 whole entry): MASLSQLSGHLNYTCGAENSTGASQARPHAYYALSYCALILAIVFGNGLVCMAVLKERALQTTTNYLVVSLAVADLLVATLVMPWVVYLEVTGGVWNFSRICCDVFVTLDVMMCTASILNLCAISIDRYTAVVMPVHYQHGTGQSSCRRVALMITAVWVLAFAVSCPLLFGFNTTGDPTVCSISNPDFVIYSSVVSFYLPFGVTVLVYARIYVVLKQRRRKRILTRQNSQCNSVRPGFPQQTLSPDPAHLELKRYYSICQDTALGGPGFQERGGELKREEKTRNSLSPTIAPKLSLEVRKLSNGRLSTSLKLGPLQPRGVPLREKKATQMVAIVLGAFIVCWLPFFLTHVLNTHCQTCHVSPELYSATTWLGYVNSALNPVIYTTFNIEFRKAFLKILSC
Growth hormone secretagogue receptor type 1, sequence (Q92847 whole entry): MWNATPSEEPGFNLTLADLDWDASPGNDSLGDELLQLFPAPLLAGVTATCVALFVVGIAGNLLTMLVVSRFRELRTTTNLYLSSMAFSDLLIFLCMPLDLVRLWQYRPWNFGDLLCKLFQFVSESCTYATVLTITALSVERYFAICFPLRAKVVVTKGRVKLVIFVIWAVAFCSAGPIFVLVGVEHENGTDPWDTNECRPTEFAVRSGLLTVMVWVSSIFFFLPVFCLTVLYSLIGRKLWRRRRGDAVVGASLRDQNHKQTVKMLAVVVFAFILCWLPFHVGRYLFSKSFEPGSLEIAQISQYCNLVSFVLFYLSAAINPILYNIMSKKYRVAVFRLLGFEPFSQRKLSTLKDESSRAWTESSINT
cGMP-inhibited 3',5'-cyclic phosphodiesterase 3A, sequence (Q14432 whole entry): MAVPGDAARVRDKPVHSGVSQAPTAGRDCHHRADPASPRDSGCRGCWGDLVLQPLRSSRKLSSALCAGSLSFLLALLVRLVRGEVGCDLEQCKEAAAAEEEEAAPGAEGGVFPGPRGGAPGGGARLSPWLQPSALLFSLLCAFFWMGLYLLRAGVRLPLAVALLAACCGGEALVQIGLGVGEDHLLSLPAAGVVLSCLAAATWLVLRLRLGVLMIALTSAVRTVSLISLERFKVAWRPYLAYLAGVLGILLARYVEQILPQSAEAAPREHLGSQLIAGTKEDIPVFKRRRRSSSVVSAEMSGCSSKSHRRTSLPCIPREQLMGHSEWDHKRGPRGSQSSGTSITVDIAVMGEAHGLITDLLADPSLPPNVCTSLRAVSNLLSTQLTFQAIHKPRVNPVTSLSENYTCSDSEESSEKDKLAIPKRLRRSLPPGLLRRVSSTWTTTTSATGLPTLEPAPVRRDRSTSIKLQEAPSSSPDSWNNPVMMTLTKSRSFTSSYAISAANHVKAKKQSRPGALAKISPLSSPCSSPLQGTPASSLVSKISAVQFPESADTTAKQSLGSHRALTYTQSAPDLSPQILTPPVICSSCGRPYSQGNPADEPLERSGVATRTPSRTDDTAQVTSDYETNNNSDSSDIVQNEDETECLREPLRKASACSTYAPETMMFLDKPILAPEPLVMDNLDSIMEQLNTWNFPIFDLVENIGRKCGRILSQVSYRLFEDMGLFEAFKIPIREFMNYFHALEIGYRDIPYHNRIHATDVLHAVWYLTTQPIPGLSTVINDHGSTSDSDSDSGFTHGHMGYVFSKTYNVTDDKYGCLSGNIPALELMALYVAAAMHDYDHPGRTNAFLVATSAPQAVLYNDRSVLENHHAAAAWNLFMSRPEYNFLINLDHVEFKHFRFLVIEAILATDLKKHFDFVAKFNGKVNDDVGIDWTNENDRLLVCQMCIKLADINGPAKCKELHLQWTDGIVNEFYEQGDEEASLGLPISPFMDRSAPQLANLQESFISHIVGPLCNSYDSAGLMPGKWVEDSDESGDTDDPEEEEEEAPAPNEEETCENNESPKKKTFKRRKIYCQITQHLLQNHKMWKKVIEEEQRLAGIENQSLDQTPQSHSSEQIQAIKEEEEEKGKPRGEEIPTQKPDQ

| Compound | AC50 [1] | AC50 (Estrogen receptor) | AC50 [2] | AC50 [3] | AC50 (Melanocortin receptor 4) | AC50 (Motilin receptor) | AC50 [4] | AC50 (D(3) dopamine receptor) | AC50 [5] | AC50 [6] | AC50 (Endothelin-1 receptor) | AC50 [7] | AC50 [8] | AC50 [9] | AC50 (Histamine H3 receptor) |
| --- | --- | --- | --- | --- | --- | --- | --- | --- | --- | --- | --- | --- | --- | --- | --- |
| O=C(O)CCCC[C@@H]1SC[C@@H]2NC(=O)N[C@@H]21 [BIOTIN] | > 30 µM | > 10 µM | > 10 µM | > 10 µM | > 10 µM | > 10 µM | > 30 µM | > 30 µM | – | – | – | – | – | – | – |
| CO/N=C(\C(=O)N[C@@H]1C(=O)N2C(C(=O)O)=C(CSc3nc(C)c(CC(=O)O)s3)CS[C@H]12)c1csc(N)n1 [CEFODIZIME] | > 30 µM | > 30 µM | > 30 µM | – | – | > 30 µM | > 30 µM | > 30 µM | > 30 µM | > 30 µM | > 30 µM | > 30 µM | > 30 µM | > 30 µM | > 30 µM |
| CCCO[C@H]1[C@@H]([C@@H](COCc2ccc(Cl)cc2)OCc2ccc(Cl)cc2)OC(OCC)[C@@H]1O (stereo not given in full) [CLOBENOSIDE] | > 30 µM | > 10 µM | > 30 µM | > 30 µM | – | > 30 µM | > 30 µM | > 30 µM | > 30 µM | > 30 µM | > 30 µM | > 30 µM | > 30 µM | > 30 µM | > 30 µM |
| CC(NC(C)(C)C)C(=O)c1cccc(Cl)c1 (stereo not given) [BUPROPION] | – | – | > 30 µM | > 10 µM | > 30 µM | > 10 µM | – | > 10 µM | > 30 µM | > 10 µM | > 30 µM | – | – | > 10 µM | > 10 µM |
| CN(C)CCOCC(=O)NC12CC3CC(CC(C3)C1)C2 [TROMANTADINE] | > 30 µM | > 30 µM | > 30 µM | – | – | > 30 µM | > 30 µM | > 30 µM | > 30 µM | > 30 µM | > 30 µM | – | > 30 µM | > 30 µM | > 30 µM |
| CCN(CC)CC(=O)Nc1c(C)cccc1C [LIDOCAINE] | – | – | > 30 µM | – | 22.7 µM | > 10 µM | > 10 µM | – | – | – | > 30 µM | – | – | – | – |
| Cc1ccc(S(=O)(=O)NC(=O)N[C@H]2[C@H]3CC[C@@](C)([C@H]2O)C3(C)C)cc1 [GLIBORNURIDE] | > 30 µM | > 30 µM | > 30 µM | > 30 µM | – | > 30 µM | > 30 µM | > 30 µM | > 30 µM | > 30 µM | > 30 µM | > 30 µM | > 30 µM | > 30 µM | > 30 µM |
| CCC(=O)O[C@H](CC(=O)O)C[N+](C)(C)C [LEVOCARNITINE PROPIONATE] | > 30 µM | > 30 µM | > 30 µM | > 30 µM | – | > 30 µM | > 30 µM | > 30 µM | > 30 µM | – | > 30 µM | > 30 µM | > 30 µM | > 30 µM | > 30 µM |
| CCCCCCCC(=O)CC[C@@H]1[C@@H](C/C=C\CCCC(=O)O)[C@@H](O)C[C@H]1O [UNOPROSTONE] | > 30 µM | > 30 µM | > 30 µM | > 30 µM | – | > 30 µM | > 30 µM | > 30 µM | > 30 µM | – | > 30 µM | > 30 µM | > 30 µM | > 30 µM | > 30 µM |
| SITOSTEROLS | > 30 µM | > 30 µM | > 30 µM | > 30 µM | – | > 30 µM | > 10 µM | > 30 µM | > 30 µM | > 30 µM | > 30 µM | > 30 µM | > 30 µM | > 30 µM | > 30 µM |
| CCCCC[C@H](O)CC[C@@H]1[C@H]2Cc3cccc(OCC(=O)O)c3C[C@H]2C[C@H]1O [TREPROSTINIL] | > 30 µM | > 30 µM | > 30 µM | > 30 µM | – | > 30 µM | > 30 µM | > 30 µM | > 30 µM | – | > 30 µM | > 30 µM | > 30 µM | > 30 µM | > 30 µM |
| C[C@H](N)C(=O)N[C@@H](CCC(N)=O)C(=O)O [ALANYL GLUTAMINE] (H-Ala-Gln-OH) | > 30 µM | > 30 µM | > 30 µM | – | – | > 30 µM | > 30 µM | > 30 µM | > 30 µM | > 30 µM | > 30 µM | > 30 µM | > 30 µM | > 30 µM | > 30 µM |
| NS(=O)(=O)c1ccc(N2CCCCS2(=O)=O)cc1 | > 30 µM | > 30 µM | > 30 µM | > 30 µM | – | > 30 µM | > 30 µM | > 30 µM | > 30 µM | > 30 µM | > 30 µM | > 30 µM | > 30 µM | > 30 µM | > 30 µM |
| CCCCOC(=O)C(=O)Nc1cccc(-c2nnn[nH]2)c1 [TAZANOLAST] | > 30 µM | > 30 µM | > 30 µM | – | – | > 30 µM | > 30 µM | > 30 µM | > 30 µM | > 30 µM | > 30 µM | > 30 µM | > 30 µM | > 30 µM | > 30 µM |
| O=C(O)c1ccc2nc(-c3cc(Cl)cc(Cl)c3)oc2c1 | > 30 µM | > 30 µM | > 30 µM | – | – | > 30 µM | 24 µM | > 1 µM | > 30 µM | > 30 µM | > 30 µM | > 30 µM | > 30 µM | > 30 µM | > 30 µM |
| CC1=C(/C=C/C(C)=C/C=C/C(C)=C/C(=O)Oc2c(C)c(C)c3c(c2C)CCC(C)(CCCC(C)CCCC(C)CCCC(C)C)O3)C(C)(C)CCC1 (stereo not given) [TRETINOIN TOCOFERIL] | > 30 µM | > 30 µM | > 30 µM | – | – | > 30 µM | > 30 µM | > 30 µM | > 30 µM | > 30 µM | > 30 µM | > 30 µM | > 30 µM | > 30 µM | > 30 µM |
